Values joined by “and” are separate entries in the source; they are usually repeats but may differ in a detail not shown here. Equal entries are not always repeated.
Columns and labels:
[1] = test system: CTG repeat expansion in the 3′ UTR of human DMPK gene; assay: DOUBLE-cut screening: CTG repeat excision by loss-of-signal ddPCR in primary DM1 patient myoblasts; assay type: cell-based; details: sgRNA pair RNP, mean of upstream and downstream ddPCR assays; for % of CTG repeat excision efficiency by ddPCR (DNA-PKi): 3 μM Compound 6 for 48 hrs; for % of CTG repeat excision efficiency by ddPCR (Vehicle): DMSO 48 hrs
Summary of the method: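 Paired upstream/downstream sgRNAs, each as RNP with recombinant SaCas9 (20 pmol protein:60 pmol sgRNA), mixed 1:1 and nucleofected into primary DM1 myoblasts; cells then given DMSO or 3 μM DNA-PKi Compound 6 for 48 hrs. Genomic DNA taken 72 hrs post-nucleofection; excision is mean of upstream and downstream loss-of-signal ddPCR, normalized to DMPK exon 1 reference.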

[2] = test system: CUG RNA foci in primary DM1 patient myoblasts; assay: DOUBLE-cut screening: FISH staining of RNA foci in primary DM1 patient myoblasts; assay type: cell-based, human; details: sgRNA pair RNP, 72 hrs post nucleofection; for % of CUG foci free nuclei (DNA-PKi): 3 μM Compound 6 for 48 hrs; for % of CUG foci free nuclei (Vehicle): DMSO 48 hrs
Summary of the method: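 Primary DM1 patient myoblasts nucleofected with paired upstream/downstream sgRNA–SaCas9 RNPs (20 pmol protein, 60 pmol sgRNA each), then treated 48 hrs with DMSO or 3 μM DNA-PK inhibitor. At 72 hrs post nucleofection, CUG foci stained by Cy3-PNA(CAG)5 FISH with MBNL1 co-staining and quantified by high-content confocal imaging.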

Substance	% of CTG repeat excision efficiency by ddPCR (DNA-PKi) [1]	% of CTG repeat excision efficiency by ddPCR (Vehicle) [1]	% of CUG foci free nuclei (DNA-PKi) [2]	% of CUG foci free nuclei (Vehicle) [2]
SaU8 +SaD10: SaCas9 sgRNA pair, SEQ ID NOs: 8 and 18 (guide 1 GGCTCGAAGGGTCCTTGTAGCC; guide 2 TTGGGGGTCCTGTAGCCTGTCA; listed as DNA, chemistry not fully specified)	69.07%	48.45%	82.92%	74.46%
SaU4 + SaD13: SaCas9 sgRNA pair, SEQ ID NOs: 4 and 21 (guide 1 CCAGTTCACAACCGCTCCGAGC; guide 2 CCCAACAACCCCAATCCACGTT; listed as DNA, chemistry not fully specified)	54.46%	32.38%	73.71%	43.83%
SaU3 + SaD7: SaCas9 sgRNA pair, SEQ ID NOs: 3 and 15 (guide 1 ACTCCGGGGCCCCGTTGGAAGA; guide 2 GGGGCGCGGGATCCCCGAAAAA; listed as DNA, chemistry not fully specified)	58.50%	35.98%	76.54%	49.49%
SaU8 + SaD6: SaCas9 sgRNA pair, SEQ ID NOs: 8 and 14 (guide 1 GGCTCGAAGGGTCCTTGTAGCC; guide 2 CTTTTGCCAAACCCGCTTTTTC; listed as DNA, chemistry not fully specified)	40.19%	23.57%	65.28%	32.43%
SaU3 + SaD10: SaCas9 sgRNA pair, SEQ ID NOs: 3 and 18 (guide 1 ACTCCGGGGCCCCGTTGGAAGA; guide 2 TTGGGGGTCCTGTAGCCTGTCA; listed as DNA, chemistry not fully specified)	69.50%	44.56%	86.88%	75.19%
SaU4 + SaD15: SaCas9 sgRNA pair, SEQ ID NOs: 4 and 23 (guide 1 CCAGTTCACAACCGCTCCGAGC; guide 2 GACAATAAATACCGAGGAATGT; listed as DNA, chemistry not fully specified)	58.99%	39.70%	85.73%	79.84%
SaU1 + SaD6: SaCas9 sgRNA pair, SEQ ID NOs: 1 and 14 (guide 1 GCCCCGGAGTCGAAGACAGTTC; guide 2 CTTTTGCCAAACCCGCTTTTTC; listed as DNA, chemistry not fully specified)	49.69%	32.51%	70.98%	31.66%
SaU2 + SaD13: SaCas9 sgRNA pair, SEQ ID NOs: 2 and 21 (guide 1 ACTCAGTCTTCCAACGGGGCCC; guide 2 CCCAACAACCCCAATCCACGTT; listed as DNA, chemistry not fully specified)	51.47%	30.92%	75.83%	39.86%
SaU1 + SaD13: SaCas9 sgRNA pair, SEQ ID NOs: 1 and 21 (guide 1 GCCCCGGAGTCGAAGACAGTTC; guide 2 CCCAACAACCCCAATCCACGTT; listed as DNA, chemistry not fully specified)	54.59%	25.67%	74.44%	35.75%
SaU3 + SaD6: SaCas9 sgRNA pair, SEQ ID NOs: 3 and 14 (guide 1 ACTCCGGGGCCCCGTTGGAAGA; guide 2 CTTTTGCCAAACCCGCTTTTTC; listed as DNA, chemistry not fully specified)	50.32%	24.10%	64.84%	31.37%
SaU2 + SaD5: SaCas9 sgRNA pair, SEQ ID NOs: 2 and 13 (guide 1 ACTCAGTCTTCCAACGGGGCCC; guide 2 GGGTTTGGCAAAAGCAAATTTC; listed as DNA, chemistry not fully specified)	59.19%	38.64%	83.71%	75.82%
SaU8 +SaD3: SaCas9 sgRNA pair, SEQ ID NOs: 8 and 11 (guide 1 GGCTCGAAGGGTCCTTGTAGCC; guide 2 CAACGATAGGTGGGGGTGCGTG; listed as DNA, chemistry not fully specified)	59.28%	48.19%	82.41%	57.67%
SaU8 + SaD5: SaCas9 sgRNA pair, SEQ ID NOs: 8 and 13 (guide 1 GGCTCGAAGGGTCCTTGTAGCC; guide 2 GGGTTTGGCAAAAGCAAATTTC; listed as DNA, chemistry not fully specified)	58.77%	49.47%	84.28%	72.77%
SaU4 + SaD19: SaCas9 sgRNA pair, SEQ ID NOs: 4 and 27 (guide 1 CCAGTTCACAACCGCTCCGAGC; guide 2 AGGACCCCCACCCCCGACCCTC; listed as DNA, chemistry not fully specified)	50.21%	36.41%	80.80%	67.92%
SaU7 + SaD5: SaCas9 sgRNA pair, SEQ ID NOs: 7 and 13 (guide 1 CGCGGCCGGCGAACGGGGCTCG; guide 2 GGGTTTGGCAAAAGCAAATTTC; listed as DNA, chemistry not fully specified)	69.71%	50.76%	82.27%	64.24%
SaU1 + SaD11: SaCas9 sgRNA pair, SEQ ID NOs: 1 and 19 (guide 1 GCCCCGGAGTCGAAGACAGTTC; guide 2 CAAAACGTGGATTGGGGTTGTT; listed as DNA, chemistry not fully specified)	52.38%	26.52%	74.03%	41.32%
SaU4 + SaD20: SaCas9 sgRNA pair, SEQ ID NOs: 4 and 28; printed twice in Table 4 (guide 1 CCAGTTCACAACCGCTCCGAGC; guide 2 AGATGGAGGGCCTTTTATTCGC; listed as DNA, chemistry not fully specified)	65.25% and 59.19%	53.12% and 52.49%	84.77% and 83.56%	59.76% and 81.47%
SaU2 + SaD6: SaCas9 sgRNA pair, SEQ ID NOs: 2 and 14 (guide 1 ACTCAGTCTTCCAACGGGGCCC; guide 2 CTTTTGCCAAACCCGCTTTTTC; listed as DNA, chemistry not fully specified)	45.77%	24.88%	65.23%	31.53%
SaU7 + SaD17: SaCas9 sgRNA pair, SEQ ID NOs: 7 and 25 (guide 1 CGCGGCCGGCGAACGGGGCTCG; guide 2 TTTATTCGCGAGGGTCGGGGGT; listed as DNA, chemistry not fully specified)	55.97%	27.41%	75.53%	36.12%
SaU8 + SaD18: SaCas9 sgRNA pair, SEQ ID NOs: 8 and 26 (guide 1 GGCTCGAAGGGTCCTTGTAGCC; guide 2 GGGCCTTTTATTCGCGAGGGTC; listed as DNA, chemistry not fully specified)	44.51%	18.17%	70.76%	36.66%
SaU4 + SaD12: SaCas9 sgRNA pair, SEQ ID NOs: 4 and 20 (guide 1 CCAGTTCACAACCGCTCCGAGC; guide 2 TCAGTGCATCCAAAACGTGGAT; listed as DNA, chemistry not fully specified)	59.06%	42.13%	87.22%	82.10%

Reference: patent publication US20240181081A1, “Compositions and Methods for Treatment of Myotonic Dystrophy Type 1 with CRISPR/SACAS9” (Vertex Pharmaceuticals Incorporated, priority 2021, published 2024)
